{
  "source": "ChEMBL document CHEMBL1137242",
  "about": "“Application of azide-alkyne cycloaddition 'click chemistry' for the synthesis of Grb2 SH2 domain-binding macrocycles” (Bioorg Med Chem Lett, 2006)",
  "note": "Starred links: 1 amine or outer side, 2 acyl side, 3 side chain; linkers in the order of their positions; H or OH if unused. Non-standard residues stand in square brackets, D forms with d. Residues, ends and D or L forms follow the SMILES beside them. *: point of attachment. Pmp = N[C@@H](Cc1ccc(CP(=O)(O)O)cc1)C(=O)O; X1 = O=C(Cn1cc(CCCN[*:1])nn1)[*:2]; Ac6c = NC1(C(=O)O)CCCCC1; NHPentyl = CCCCCN*",
  "data": [
    {"target": "Growth factor receptor-bound protein 2 (Homo sapiens, UniProt P62993)", "sequence (P62993 whole entry, the tested form may be a part)": "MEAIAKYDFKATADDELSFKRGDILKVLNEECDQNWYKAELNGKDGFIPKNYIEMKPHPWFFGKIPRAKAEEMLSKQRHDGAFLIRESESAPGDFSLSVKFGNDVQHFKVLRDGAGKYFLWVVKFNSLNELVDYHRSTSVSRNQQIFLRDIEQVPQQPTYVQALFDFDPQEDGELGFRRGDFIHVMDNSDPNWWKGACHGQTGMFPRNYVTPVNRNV", "experiment": "Binding affinity to Grb2-SH2 domain", "units": {"Kd": "nM"}, "values": [
      {"smiles": "C#CCCCNC(=O)[C@H](CC(N)=O)NC(=O)C1(NC(=O)[C@H](Cc2ccc(CP(=O)(O)O)cc2)NC(=O)CN=[N+]=[N-])CCCCC1", "Kd": "> 1000"},
      {"smiles": "NC(=O)C[C@@H]1NC(=O)C2(CCCCC2)NC(=O)[C@@H](Cc2ccc(CP(=O)(O)O)cc2)NC(=O)Cn2cc(nn2)CCCNC(=O)[C@H](CC(N)=O)NC(=O)C2(CCCCC2)NC(=O)[C@@H](Cc2ccc(CP(=O)(O)O)cc2)NC(=O)Cn2cc(nn2)CCCNC1=O", "Kd": "> 1000"},
      {"smiles": "NC(=O)C[C@@H]1NC(=O)C2(CCCCC2)NC(=O)[C@H](Cc2ccc(CP(=O)(O)O)cc2)NC(=O)Cn2cc(nn2)CCCNC1=O", "Kd": 230},
      {"smiles": "CCCCCNC(=O)[C@H](CC(N)=O)NC(=O)C1(NC(=O)[C@H](Cc2ccc(CP(=O)(O)O)cc2)NC(=O)Cn2cc(CCCNC(=O)[C@H](CC(N)=O)NC(=O)C3(NC(=O)[C@H](Cc4ccc(CP(=O)(O)O)cc4)NC(C)=O)CCCCC3)nn2)CCCCC1", "note": "(Ac-[Pmp][Ac6c]N[X1][Pmp][Ac6c]N-NHPentyl)", "Kd": 1.1},
      {"smiles": "NC(=O)C[C@@H]1NC(=O)C2(CCCCC2)NC(=O)[C@@H](Cc2ccc(CP(=O)(O)O)cc2)NC(=O)Cn2cc(nn2)CCCNC1=O", "Kd": "> 1000"},
      {"smiles": "NC(=O)C[C@@H]1NC(=O)C2(CCCCC2)NC(=O)[C@H](Cc2ccc(CP(=O)(O)O)cc2)NC(=O)Cn2cc(nn2)CCCNC(=O)[C@H](CC(N)=O)NC(=O)C2(CCCCC2)NC(=O)[C@H](Cc2ccc(CP(=O)(O)O)cc2)NC(=O)Cn2cc(nn2)CCCNC1=O", "Kd": 1.8}
    ]}
  ]
}
